From patent US20260285850A1, “SUBSTITUTED OXAZOLIDINONES AND IMIDAZOLINONES AS HERBICIDES” (FMC CORPORATION, priority 2023, published 2026)

What was measured:
Type in all cases: in vivo
[1] = tested on: barnyardgrass (Echinochloa crus-galli); experiment: Test A preemergence soil spray, visual injury rating 0-100; conditions: 10 days
Procedure, shortened: (§1)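 Visual injury ratings (0, no effect; 100, complete control) were assigned relative to untreated plants 10 days after treatment. Test chemicals, formulated with a surfactant-containing non-phytotoxic solvent, were applied in loam-sand soil either as a directed soil spray before emergence or to emerged plants, and plants were kept in a greenhouse.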

[2] = tested on: blackgrass (Alopecurus myosuroides); experiment: as above; conditions: 10 days
Procedure, shortened: as §1

corn (Zea mays) [3] = experiment: as above; conditions: 10 days
Procedure, shortened: as §1

[4] = tested on: green foxtail (Setaria viridis); experiment: as above; conditions: 10 days
Procedure, shortened: as §1

kochia (Bassia scoparia) [5] = experiment: as above; conditions: 10 days
Procedure, shortened: as §1

[6] = tested on: oat, wild (wild oat, Avena fatua); experiment: as above; conditions: 10 days
Procedure, shortened: as §1

[7] = tested on: palmer (palmer amaranth, palmer pigweed, Amaranthus palmeri); experiment: as above; conditions: 10 days
Procedure, shortened: as §1

[8] = tested on: ragweed (common ragweed, Ambrosia artemisiifolia); experiment: as above; conditions: 10 days
Procedure, shortened: as §1

[9] = tested on: ryegrass, Italian (italian ryegrass, Lolium multiflorum); experiment: as above; conditions: 10 days
Procedure, shortened: as §1

soybean (Glycine max) [10] = experiment: as above; conditions: 10 days
Procedure, shortened: as §1

[11] = tested on: wheat (Triticum aestivum); experiment: as above; conditions: 10 days
Procedure, shortened: as §1

[12] = tested on: barnyardgrass (Echinochloa crus-galli); experiment: Test A postemergence application, visual injury rating 0-100
Procedure, shortened: as §1

[13] = tested on: blackgrass (Alopecurus myosuroides); experiment: as above
Procedure, shortened: as §1

corn (Zea mays) [14] = experiment: as above
Procedure, shortened: as §1

[15] = tested on: green foxtail (Setaria viridis); experiment: as above
Procedure, shortened: as §1

[16] = tested on: horseweed (Erigeron canadensis); experiment: as above
Procedure, shortened: as §1

kochia (Bassia scoparia) [17] = experiment: as above
Procedure, shortened: as §1

[18] = tested on: oat, wild (wild oat, Avena fatua); experiment: as above
Procedure, shortened: as §1

[19] = tested on: palmer (palmer amaranth, palmer pigweed, Amaranthus palmeri); experiment: as above
Procedure, shortened: as §1

[20] = tested on: ragweed (common ragweed, Ambrosia artemisiifolia); experiment: as above
Procedure, shortened: as §1

[21] = tested on: ryegrass, Italian (italian ryegrass, Lolium multiflorum); experiment: as above
Procedure, shortened: as §1

soybean (Glycine max) [22] = experiment: as above
Procedure, shortened: as §1

[23] = tested on: wheat (Triticum aestivum); experiment: as above
Procedure, shortened: as §1

[24] = tested on: barnyardgrass (Echinochloa crusgalli); experiment: Test B flooded paddy test, visual plant response rating 0-100; conditions: 250 g ai/ha, Flood, applied to paddy water, evaluated after 13 days
Procedure, shortened: (§2)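 Plants were grown to the 2-leaf stage, then pots were flooded to 3 cm above the soil and test compounds were applied directly into the paddy water. Water depth was held there throughout; after 13 days in a greenhouse, injury was scored visually against untreated controls.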

[25] = tested on: ducksalad (Heteranthera limosa); experiment: as above; conditions: 250 g ai/ha, Flood, applied to paddy water, evaluated after 13 days
Procedure, shortened: as §2

rice (Oryza sativa) = experiment: as above; conditions: 250 g ai/ha, Flood, applied to paddy water, evaluated after 13 days
Procedure, shortened: as §2

[26] = tested on: sedge, umbrella (small-flower umbrella sedge, Cyperus difformis); experiment: as above; conditions: 250 g ai/ha, Flood, applied to paddy water, evaluated after 13 days
Procedure, shortened: as §2

[27] = 62 g ai/ha, 0 = no effect, 100 = complete control
[28] = 62 g ai/ha, postemergence, 10 days, 0 = no effect, 100 = complete control
[29] = Postemergence, 16 g ai/ha, greenhouse 10 days, 0 no effect, 100 complete control

For CC1(C(=O)NC2CC=C(C(=O)O)C2)CN(c2cc(F)cc(Cl)c2)C(=O)O1 (centres unmarked) [Compound 159], the “Barnyardgrass plant response rating” value ([1]; 16 g ai/ha, 0 to 100 scale) was 0, the “Barnyardgrass plant response rating (0-100)” value [1, 27] was 80 and the “Blackgrass plant response rating” value ([2]; 16 g ai/ha, 0 to 100 scale) was 0. For the same molecule, the “Blackgrass plant response rating (0-100)” value [2, 27] was 0, the “Corn plant response rating” value (corn (Zea mays) [3]; 16 g ai/ha, 0 to 100 scale) was 20 and the “Corn plant response rating (0-100)” value (corn (Zea mays) [3]; [27]) was 50. The “Foxtail, Green plant response rating” value ([4]; 16 g ai/ha, 0 to 100 scale) was 20, the “Foxtail, Green plant response rating (0-100)” value [4, 27] was 100 and the “Kochia plant response rating” value (kochia (Bassia scoparia) [5]; 16 g ai/ha, 0 to 100 scale) was 0. For the same molecule, the “Kochia plant response rating (0-100)” value (kochia (Bassia scoparia) [5]; [27]) was 90, the “Oat, Wild plant response rating” value ([6]; 16 g ai/ha, 0 to 100 scale) was 0 and the “Oat, Wild plant response rating (0-100)” value [6, 27] was 20. For the same molecule, the “Pigweed, Palmer plant response rating” value ([7]; 16 g ai/ha, 0 to 100 scale) was 30, the “Pigweed, Palmer plant response rating (0-100)” value [7, 27] was 100 and the “Ragweed plant response rating” value ([8]; 16 g ai/ha, 0 to 100 scale) was 0. The “Ragweed plant response rating (0-100)” value [8, 27] was 0, the “Ryegrass, Italian plant response rating” value ([9]; 16 g ai/ha, 0 to 100 scale) was 30 and the “Ryegrass, Italian plant response rating (0-100)” value [9, 27] was 90. The “Soybean plant response rating” value (soybean (Glycine max) [10]; 16 g ai/ha, 0 to 100 scale) was 0, the “Soybean plant response rating (0-100)” value (soybean (Glycine max) [10]; [27]) was 50 and the “Wheat plant response rating” value ([11]; 16 g ai/ha, 0 to 100 scale) was 50. The “Wheat plant response rating (0-100)” value [11, 27] was 90, the “Barnyardgrass plant response rating (0-100)” value [12, 28] was 100 and the “Barnyardgrass plant response rating (0 to 100 scale)” value [12, 29] was 100. The “Blackgrass plant response rating (0-100)” value [13, 28] was 90, the “Blackgrass plant response rating (0 to 100 scale)” value [13, 29] was 80 and the “Corn plant response rating (0-100)” value (corn (Zea mays) [14]; [28]) was 100. The “Corn plant response rating (0 to 100 scale)” value (corn (Zea mays) [14]; [29]) was 100, the “Foxtail, Green plant response rating (0-100)” value [15, 28] was 90 and the “Foxtail, Green plant response rating (0 to 100 scale)” value [15, 29] was 70. For the same molecule, the “Horseweed plant response rating (0-100)” value [16, 28] was 80, the “Horseweed plant response rating (0 to 100 scale)” value [16, 29] was 50 and the “Kochia plant response rating (0-100)” value (kochia (Bassia scoparia) [17]; [28]) was 80. The “Kochia plant response rating (0 to 100 scale)” value (kochia (Bassia scoparia) [17]; [29]) was 70, the “Oat, Wild plant response rating (0-100)” value [18, 28] was 30 and the “Oat, Wild plant response rating (0 to 100 scale)” value [18, 29] was 30. For the same molecule, the “Pigweed, Palmer plant response rating (0-100)” value [19, 28] was 90, the “Pigweed, Palmer plant response rating (0 to 100 scale)” value [19, 29] was 80 and the “Ragweed plant response rating (0-100)” value [20, 28] was 70. The “Ragweed plant response rating (0 to 100 scale)” value [20, 29] was 40, the “Ryegrass, Italian plant response rating (0-100)” value [21, 28] was 100 and the “Ryegrass, Italian plant response rating (0 to 100 scale)” value [21, 29] was 60. The “Soybean plant response rating (0-100)” value (soybean (Glycine max) [22]; [28]) was 80, the “Soybean plant response rating (0 to 100 scale)” value (soybean (Glycine max) [22]; [29]) was 80 and the “Wheat plant response rating (0-100)” value [23, 28] was 90. The “Wheat plant response rating (0 to 100 scale)” value [23, 29] was 30, the “Plant response rating, Barnyardgrass (0 to 100 scale, 0 is no effect and 100 is complete control)” value [24] was 95 and the “Plant response rating, Ducksalad (0 to 100 scale, 0 is no effect and 100 is complete control)” value [25] was 100. For the same molecule, the “Plant response rating, Rice (0 to 100 scale, 0 is no effect and 100 is complete control)” value (rice (Oryza sativa)) was 55 and the “Plant response rating, Sedge, Umbrella (0 to 100 scale, 0 is no effect and 100 is complete control)” value [26] was 100.
